Test system: Onchocerca gutturosa Adult Male Worms
Test: Onchocerciasis in vitro screening model, worm motility score
Type: cell-based
Details: Onchocerca gutturosa; Table 1 O. gutturosa; levels A/B/C; motility or MTT readout not specified; read-out: O. gutturosa activity level (IC50 or MED)

Row | Structure (SMILES) | IC50
1 | Cc1cccnc1Nc1nc(-c2cc(OC(C)C)c(C(F)(F)F)cn2)ns1 [Compound 152, 3-(4-isoprop-oxy-5-(trifluoromethyl)pyridin-2-yl)-N-(3-methylpyridin-2-yl)-1,2,4-thia-diazol-5-amine] | 200 to 500 nM
2 | CN(C)c1cccnc1Nc1nc(-c2cc(OC3CC3)c(C(F)(F)F)cn2)ns1 [Compound 153, N2-(3-(4-cyclo-propoxy-5-(trifluoromethyl)pyridin-2-yl)-1,2,4-thiadiazol-5-yl)-N3,N3-dimethyl-pyridine-2,3-diamine] | 500 to 5000 nM
3 | CC(C)Oc1ccc(-c2nnc(Nc3cc(C(F)(F)F)c(C(C)C)cn3)o2)nc1 [Compound 154, 5-(5-isoprop-oxypyridin-2-yl)-N-(5-isopropyl-4-(trifluoro-methyl)pyridin-2-yl)-1,3,4-oxadiazol-2-amine] | 200 to 500 nM
4 | CC(C)Oc1ccc(-c2nsc(Nc3ncccc3N(C)C)n2)nn1 [Compound 155, N2-(3-(6-isopropoxy-pyridazin-3-yl)-1,2,4-thiadiazol-5-yl)-N3,N3-dimethyl-pyridine-2,3-diamine] | 500 to 5000 nM
5 | CC(C)Oc1cnc(-c2nsc(Nc3ncccc3N(C)C)n2)cc1C(F)(F)F [Compound 156, N2-(3-(5-isopropoxy-4-(trifluoromethyl)pyridin-2-yl)-1,2,4-thiadiazol-5-yl)-N3,N3-dimethyl-pyridine-2,3-diamine] | < 200 nM
6 | CC(=O)N(C)c1cccnc1Nc1nc(-c2ccc(OC(C)C)cn2)ns1 [Compound 157, N-(2-(3-(5-isopropoxy-pyridin-2-yl)-1,2,4-thiadiazol-5-ylamino)pyridin-3-yl)-N-methyl-acetamide] | 500 to 5000 nM
7 | COc1cnc(-c2nnc(Nc3ncccc3N(C)C)o2)cn1 [Compound 158, N2-(5-(5-methoxy-pyrazin-2-yl)-1,3,4-oxadiazol-2-yl)-N3,N3-dimethyl-pyridine-2,3-diamine] | 500 to 5000 nM
8 | CNc1cccnc1N(C)c1nc(-c2ccc(OC(C)C)cn2)ns1 [Compound 159, N2-(3-(5-isopropoxy-pyridin-2-yl)-1,2,4-thiadiazol-5-yl)-N2,N3-dimethyl-pyridine-2,3-diamine] | 500 to 5000 nM
9 | CC(C)Oc1cnc(-c2nnc(Nc3ncccc3N(C)C)o2)cc1C(F)(F)F [Compound 160, N2-(5-(5-isopropoxy-4-(trifluoromethyl)pyridin-2-yl)-1,3,4-oxadiazol-2-yl)-N3,N3-dimethyl-pyridine-2,3-diamine] | 500 to 5000 nM
10 | CC(=O)Nc1cccnc1Nc1nc(-c2ccc(OC(C)C)cn2)ns1 [Compound 161, N-(2-(3-(5-isopropoxy-pyridin-2-yl)-1,2,4-thiadiazol-5-ylamino)pyridin-3-yl)acetamide] | 500 to 5000 nM
11 | CN(C)c1cccnc1Nc1nc(-c2cc3c(cn2)N(C)CC3)ns1 [Compound 162, N3,N3-dimethyl-N2-(3-(1-methyl-2,3-dihydro-1H-pyrrolo[2,3-c]pyridin-5-yl)-1,2,4-thiadiazol-5-yl)pyridine-2,3-diamine] | < 200 nM
12 | CN1Cc2ccnc(-c3nsc(Nc4ncccc4N(C)C)n3)c2C1 [Compound 163, N3,N3-dimethyl-N2-(3-(2-methyl-2,3-dihydro-1H-pyrrolo[3,4-c]pyridin-4-yl)-1,2,4-thia-diazol-5-yl)pyridine-2,3-diamine] | < 200 nM
13 | CC(C)Oc1ccc(-c2nsc(Nc3ncccc3C(N)=O)n2)nc1 [Compound 164, 2-(3-(5-isoprop-oxypyridin-2-yl)-1,2,4-thiadiazol-5-ylamino) nicotinamide] | 500 to 5000 nM
14 | CC(C)Oc1ccc(-c2nsc(Nc3ncc(C(C)C)cc3C(F)(F)F)n2)nc1 [Compound 165, 3-(5-isopropoxy-pyridin-2-yl)-N-(5-isopropyl-3-(trifluoromethyl)pyridin-2-yl)-1,2,4-thiadiazol-5-amine] | < 200 nM
15 | COc1cc(C(C)C)cnc1Nc1nc(-c2ccc(OC(C)C)cn2)ns1 [Compound 166, 3-(5-isopropoxy-pyridin-2-yl)-N-(5-isopropyl-3-methoxypyridin-2-yl)-1,2,4-thiadiazol-5-amine] | < 200 nM
16 | COc1cccnc1Nc1nc(-c2cc(C(F)(F)F)c(OC(C)C)cn2)ns1 [Compound 167, 3-(5-isopropoxy-4-(trifluoromethyl)pyridin-2-yl)-N-(3-methoxypyridin-2-yl)-1,2,4-thiadiazol-5-amine] | 200 to 500 nM
17 | CC(C)Oc1cnc(-c2nsc(Nc3ncccc3C(C)C)n2)cc1C(F)(F)F [Compound 168, 3-(5-isoprop-oxy-4-(trifluoromethyl)pyridin-2-yl)-N-(3-isopropyl-pyridin-2-yl)-1,2,4-thiadiazol-5-amine] | < 200 nM
18 | CC(C)Oc1ccc(-c2nsc(Nc3ncccc3N(C)C(=O)C(C)C)n2)nc1 [Compound 169, N-(2-(3-(5-isopropoxy-pyridin-2-yl)-1,2,4-thiadiazol-5-ylamino)pyridin-3-yl)-N-methyliso-butyramide] | 200 to 500 nM
19 | CC(C)Oc1ccc(-c2nsc(Nc3ncccc3N(C)C(=O)C3CC3)n2)nc1 [Compound 170, N-(2-(3-(5-isopropoxy-pyridin-2-yl)-1,2,4-thiadiazol-5-ylamino)pyridin-3-yl)-N-methylcyclo-propanecarbox-amide] | 200 to 500 nM

Row | Structure (SMILES) | IC50
20 | CC(C)Oc1ccc(-c2nsc(Nc3ncccc3N(C)C(=O)C3CCC3)n2)nc1 [Compound 171, N-(2-(3-(5-isopropoxy-pyridin-2-yl)-1,2,4-thiadiazol-5-ylamino)pyridin-3-yl)-N-methylcyclo-butane-carboxamide] | < 200 nM
21 | CC(C)Oc1ccc(-c2nsc(Nc3ncccc3N(C)C(=O)C3CCCC3)n2)nc1 [Compound 172, N-(2-(3-(5-isopropoxy-pyridin-2-yl)-1,2,4-thiadiazol-5-ylamino)pyridin-3-yl)-N-methylcyclo-pentane-carboxamide] | < 200 nM
22 | Cc1cccnc1Nc1nnc(-c2cc(OC(C)C)ccn2)s1 [Compound 173, 5-(4-isopropoxy-pyridin-2-yl)-N-(3-methyl-pyridin-2-yl)-1,3,4-thia-diazol-2-amine] | 500 to 5000 nM
23 | COc1ccnc(-c2nnc(Nc3ccc(C(F)(F)F)cn3)s2)c1 [Compound 174, 5-(4-methoxy-pyridin-2-yl)-N-(5-(trifluoromethyl)pyridin-2-yl)-1,3,4-thiadiazol-2-amine] | 200 to 500 nM
24 | COc1ccnc(-c2nsc(Nc3ccc(C(F)(F)F)cn3)n2)c1 [Compound 176, 3-(4-methoxy-pyridin-2-yl)-N-(5-(trifluoromethyl)pyridin-2-yl)-1,2,4-thiadiazol-5-amine] | < 200 nM
25 | COc1ccnc(-c2nsc(Nc3ccc(C(C)C)cn3)n2)c1 [Compound 177, N-(5-isopropyl-pyridin-2-yl)-3-(4-methoxy-pyridin-2-yl)-1,2,4-thiadiazol-5-amine] | < 200 nM
26 | CC(C)Oc1ccc(-c2nsc(Nc3ncccc3N3CCCC3=O)n2)nc1 [Compound 178, 1-(2-(3-(5-isopropoxy-pyridin-2-yl)-1,2,4-thiadiazol-5-ylamino)pyridin-3-yl)pyrrolidin-2-one] | 500 to 5000 nM
27 | CC(C)Oc1cnc(-c2nsc(Nc3ncccc3N3CCCC3=O)n2)cc1C(F)(F)F [Compound 179, 1-(2-(3-(5-isopropoxy-4-(trifluoromethyl)pyridin-2-yl)-1,2,4-thiadiazol-5-ylamino)pyridin-3-yl)pyrrolidin-2-one] | 500 to 5000 nM
28 | COc1ccc(Nc2nnc(-c3ccc(OC(C)C)cn3)o2)nc1 [Compound 180, 5-(5-isopropoxy-pyridin-2-yl)-N-(5-methoxy-pyridin-2-yl)-1,3,4-oxadiazol-2-amine] | 500 to 5000 nM
29 | CC(C)Oc1ccc(-c2nnc(Nc3ccc(C(C)C)cn3)s2)nc1 [Compound 181, 5-(5-isopropoxy-pyridin-2-yl)-N-(5-isopropyl-pyridin-2-yl)-1,3,4-thiadiazol-2-amine] | 500 to 5000 nM
30 | COc1ccnc(-c2nsc(Nc3cc(C(F)(F)F)c(C(C)C)cn3)n2)c1 [Compound 182, N-(5-iso-propyl-4-(trifluoro-methyl)pyridin-2-yl)-3-(4-methoxy-pyridin-2-yl)-1,2,4-thiadiazol-5-amine] | 200 to 500 nM
31 | COc1ccc(Nc2nc(-c3cc(OC4CCCCC4)ccn3)ns2)nc1 [Compound 183, 3-(4-(cyclo-hexyloxy)pyridin-2-yl)-N-(5-methoxypyridin-2-yl)-1,2,4-thiadiazol-5-amine] | 200 to 500 nM
32 | COc1ccnc(-c2nsc(Nc3ccc(OC(C)C)cn3)n2)c1 [Compound 184, N-(5-isoprop-oxypyridin-2-yl)-3-(4-methoxy-pyridin-2-yl)-1,2,4-thiadiazol-5-amine] | < 200 nM
33 | COc1ccc(-c2nsc(Nc3ccc(C(C)C)cn3)n2)nc1 [Compound 185, N-(5-isopropyl-pyridin-2-yl)-3-(5-methoxy-pyridin-2-yl)-1,2,4-thiadiazol-5-amine] | 200 to 500 nM
34 | CC(C)Oc1cnc(-c2nsc(Nc3ncccc3N(C)C(=O)C3CC3)n2)cc1C(F)(F)F [Compound 186, N-(2-(3-(5-isopropoxy-4-(trifluoro-methyl)pyridin-2-yl)-1,2,4-thiadiazol-5-ylamino)pyridin-3-yl)-N-methylcyclo-propanecarbox-amide] | 500 to 5000 nM
35 | CC(=O)N(C)c1cccnc1Nc1nc(-c2cc(C(F)(F)F)c(OC(C)C)cn2)ns1 [Compound 187, N-(2-(3-(5-isopropoxy-4-(trifluoro-methyl)pyridin-2-yl)-1,2,4-thiadiazol-5-ylamino)pyridin-3-yl)-N-methylacetamide] | 500 to 5000 nM
36 | CC(C)Oc1ccc(-c2nsc(Nc3ncccc3C(=O)N(C)C)n2)nc1 [Compound 188, 2-(3-(5-isoprop-oxypyridin-2-yl)-1,2,4-thiadiazol-5-ylamino)-N,N-dimethyl nicotinamide] | 200 to 500 nM
37 | CNC(=O)c1cccnc1Nc1nc(-c2ccc(OC(C)C)cn2)ns1 [Compound 189, 2-(3-(5-isoprop-oxypyridin-2-yl)-1,2,4-thiadiazol-5-ylamino)-N-methyl-nicotinamide] | 500 to 5000 nM
38 | CC(C)Oc1ccc(-c2nsc(Nc3ncccc3C(=O)N3CCCC3)n2)nc1 [Compound 190, (2-(3-(5-isoprop-oxypyridin-2-yl)-1,2,4-thiadiazol-5-ylamino)pyridin-3-yl) (pyrrolidin-1-yl) methanone] | 200 to 500 nM

Reference: patent publication US11505548B2, “Heterocyclic compounds and their use for treatment of helminthic infections and diseases” (Celgene Corporation, priority 2019, dated 2022)
